Reference: US20100022556A1, “Therapeutic combinations comprising a long acting dihydropyridine calcium-channel blocker and a statin” (CHIESI FARMACEUTICI S.P.A., priority 2005, published 2010)

Experiments:
[1] = system: plasma tissue plasminogen activator (t-PA); experiment: Plasma t-PA activity in hypertensive, hypercholesterolemic patients; format: in vivo, human; settings: for t-PA: plasma activity, patients, end of 12 week treatment
Procedure: (§1) The aim of this study was to evaluate the effect of the manidipine-simvastatin combination on plasma tissue plasminogen activator (t-PA) and inhibitor (PAI-1) activity, on plasma intercellular adhesion molecule type-1 (ICAM-1) and on serum C-reactive protein (CRP) in hypertensive, hypercholesterolemic patients.
(§2) After 4 week placebo run-in period, 30 hypertensive hypercholesterolemic patients were randomized to a manidipine 20 mg or simvastatin 40 mg or a manidipine-simvastatin fixed combination treatment, according to 3×3 cross-over design; each treatment had 12 week duration.
(§3) The last day of the placebo run-in period and of each treatment period blood pressure was measured and a venous blood sample was taken (at the same hour in the morning) to evaluate plasma t-PA and PAI-1 activity, TC plasma, ICAM-1 and CRP.

[2] = Blood pressure in hypertensive, hypercholesterolemic patients (3x3 cross-over trial); format: in vivo, human; settings: manidipine 20 mg, simvastatin 40 mg or fixed combination, end of 12 week treatment
Procedure: as §1, §2, §3

[3] = system: plasma intercellular adhesion molecule type-1 (ICAM-1); experiment: Plasma ICAM-1 in hypertensive, hypercholesterolemic patients; format: in vivo, human; settings: for change in ICAM-1 mean value vs placebo: 12 week treatment; for ICAM-1: plasma, patients, end of 12 week treatment
Procedure: as §1, §2, §3

[4] = system: total cholesterol; experiment: Total cholesterol (TC) in hypertensive, hypercholesterolemic patients; format: in vivo, human; settings: for TC: patients, end of 12 week treatment
Procedure: as §3

[5] = system: ischemic-reperfused myocardium; settings: isolated rat hearts; simvastatin: normocholesterolemic rat hearts; cited from earlier work
[6] = system: perfused rat heart preparations submitted to ischemia-reperfusion; experiment: Myocardial ischemia-reperfusion damage, perfused hearts from orally treated rats; format: in vivo, Male Wistar rats; settings: oral gavage once a day for 5 days; manidipine 1 and 3 mg/kg, simvastatin 1 mg/kg, alone or combined
Procedure: The hearts were excised from rats orally treated for 5 consecutive days with manidipine and simvastatin alone or in combination. […] Data are means±SEM of 8 hearts per group. *P<0.05, **P<0.01, ***P<0.001 vs control; #P<0.01 vs simvastatin alone.
The aim of this study was to evaluate the protective effects of the manidipine-simvastatin combination against myocardial ischemia-reperfusion damage in the rat.
The study was performed according to a method described previously (Rossoni G et al Pharmacol Exp Ther. 2003 307(2), 633-9).
Male Wistar rats were randomly divided into six groups (n=6-8 rats per group). Manidipine (1 mg/kg and 3 mg/kg) simvastatin (1 mg/kg) were administered alone or in combination by oral gavage once a day for five consecutive days.
The following parameters were determined:
i) the left ventricular end-diastolic pressure (LVEDP) and the left ventricular developed pressure (LVDevP; peak left ventricular systolic pressure minus LVEDP);
ii) the activities of creatine kinase (CK) and lactate dehydrogenase (LDH) in the heart perfusate.
The data were expressed as mean±S.E.M (standard error of the mean).

[7] = system: inhibitor (PAI-1); experiment: Plasma PAI-1 activity in hypertensive, hypercholesterolemic patients; format: in vivo, human; settings: for change in PAI-1 activity vs placebo: 12 week treatment; for PAI-1: plasma activity, patients, end of 12 week treatment
Procedure: as §1, §2, §3

[8] = system: serum C-reactive protein (CRP); experiment: Serum CRP in hypertensive, hypercholesterolemic patients; format: in vivo, human; settings: end of 12 week treatment
Procedure: as §1, §2, §3

[9] = change vs placebo, 12 week treatment

SMILES	change in t-PA activity vs placebo [1, 9]	t-PA [1] [U/ml]	DBP [2] [mmHg]	SBP [2] [mmHg]	change in ICAM-1 mean value vs placebo [3] [ng/mL]	ICAM-1 [3] [ng/mL]	TC [4] [mg/dL]	protection of ischemic-reperfused myocardium [5]	rise in LVEDP during ischemia and reperfusion [6]	change in PAI-1 activity vs placebo [7]	PAI-1 [7] [U/ml]	CRP [8] [mg/dL]	change in total cholesterol mean value vs placebo [4, 9] [mg/dL]
COC(=O)C1=C(C)NC(C)=C(C(=O)OCCN2CCN(C(c3ccccc3)c3ccccc3)CC2)C1c1cccc([N+](=O)[O-])c1 (racemic) [Manidipine, (±)-1,4-dihydro-2,6-dimethyl-4-(3-nitrophenyl)-3,5-pyridinedicarboxylic acid 2-[4-(diphenylmethyl)-1-piperazinyl]ethyl methyl ester]	+0.22 U/ml	0.71 ± 0.19	84.1 ± 4.8	140.5 ± 10.7	-17.6	220.2 ± 29.8	253.8 ± 29.6	relevant cardioprotection	significantly reduced according to the dose used	did not affect	24.9 ± 12.6	0.34 ± 0.20	
CCC(C)(C)C(=O)O[C@H]1C[C@@H](C)C=C2C=C[C@H](C)[C@H](CC[C@@H]3C[C@@H](O)CC(=O)O3)[C@H]21 [Simvastatin, simvastatin]		0.51 ± 0.14	98.2 ± 6.2	155.4 ± 11.9	-30.4	207.4 ± 26	202.2 ± 26.4			−8.5 U/ml	16.1 ± 7.3	0.16 ± 0.12	-52.7
COC(=O)C1=C(C)NC(C)=C(C(=O)OC2CCCN(Cc3ccccc3)C2)C1c1cccc([N+](=O)[O-])c1 (centres unmarked) [benidipine]								relevant cardioprotection					
